According to patent US5622725A, “Wound disinfection and repair” (Alcide Corporation, priority 1996, dated 1997):

Columns and labels:
[1] = tested on: S. epidermidis biofilms; assay: Sterilization of S. epidermidis biofilms by diluted 50 ppm ClO2 or formol saline; format: cell-based, Staphylococcus epidermidis; conditions: for minimal time of exposure to effect sterilization: 22° C.
Protocol: Antibiotic activity against S. epidermidis biofilms are determined using a supravital dye which acts as an electron acceptor in coupled oxidative systems in biofilm bacteria. The method allows the bacteria to be examined undisturbed within the biofilm matrix in situ. Briefly stated, the biofilms are exposed to antibiotic solutions and incubated at […] for varying periods of time. Positive (viable, 1% peptone water) and negative (sterilized, 4% formol-peptone) controls are included in all experiments. After a designated exposure at 22° C. for varying periods of time between 15 seconds to 6 hours, the biofilms are rinsed twice in sterile water and allowed to drain. They are then placed in a flat agar medium incorporating substantive dyes and incubated at 37° C. for 4 hours, then 24 hours. Viability is assessed visually by a change in dye color and confirmed after 24 hours by mechanically scraping and subsequently culturing the biofilms. Sterilization is indicated by the absence of color changes and confirmed by culture of both intact and mechanically fragmented biofilms. Inhibition of growth is indicated by a lack of color change after a 4-hour incubation and confirmed by a positive color change by 24 hours.
This conclusion is underscored in studies that assess the efficacy of methods employed using compositions of the invention in combination with an infusate used in C A P D and C C P D practice, Inpersol® Abbott Laboratories, Montreal, Canada, which contains 4.25% dextrose and has a pH of 5.2. A 50 ppm ClO2 solution is diluted from 1:2 to 1:10 with normal saline (denoted below as NS), Inpersol® peritoneal dialyzate (denoted as PD), and peptone-saline (a standardized protein digest obtained from Oxoid, denoted as PS). Four percent formol saline, a known potent environmental disinfectant of considerable toxicity, is used as a reference. The results are expressed as the minimal time of exposure at 22° C. to effect sterilization of S. epidermidis biofilms: […]

[2] = tested on: polymorphonuclear leukocytes; assay: Chemotaxis, cell integrity (lactate dehydrogenase) and morphology of isolated polymorphonuclear leukocytes; format: cell-based; conditions: in vitro, ClO2 solution 3 to 300 ppm
Excerpt: To test whether methods of the invention can control the inflammatory response, isolated polymorphonuclear leukocytes, which are among the first cells to be found at a wound or a site of potential infection, are studied with respect to their response to chlorine dioxide solutions and compared with a control containing ibuprofen, a known non-steroid anti-inflammatorycompound. The choice of in vitro assay is chemotaxis.
Isolated polymorphonuclear leukocytes are studied with respect to their response to a ClO2 solution varying in concentration from 3 to 300 ppm and an ibuprofen control. Cellular response and integrity (chemotaxis)is assayed in vitro after incubating with both compounds by measuring lactate dehydrogenase activity and/or release concurrently with observing morphology using scanning electron microscopy and/or transmission electron microscopy.
The results are graphically illustrated in FIGS. 1 to 3. The x-axis in the figures show dilutions of a 0.5 mg/ml ibuprofen solution, and chlorine dioxide solutions prepared by combining lactic acid with sodium chlorite and diluting to yield chlorine dioxide concentrations as follows: […], 1:10 is 60 ppm ClO2, 1:20 is 30 ppm ClO2, 1:50 is 12 ppm ClO2, 1:100 is 6 ppm ClO2, 1:150 is 4 ppm ClO2, and 1:200 is 3 ppm ClO2.
A negative control is denoted by .smallcircle.. […]

[3] = tested on: free radicals generated by xanthine oxidase (XO) on xanthine; assay: Scavenging of free radicals generated by xanthine oxidase on xanthine (ferricytochrome C reduction); format: biochemical
Excerpt: Since recent studies indicate that the superoxide radical is the active form of oxygen in the prolyl and lysyl hydrolyase reactions during collagen synthesis, this example assesses the effects that compositions of the invention have on free radicals.
Free radicals are generated in vitro by the action of xanthine oxidase (XO) on xanthine. The generation of free radicals is monitored by the reduction of ferricytochrome C by the system. The action of chlorine dioxide is compared with the scavenging action of the well known free radical scavengers superoxide dismutase (SOD) and catalase.
The experiments are divided into three groups. In the first group, 50 μmoles of xanthine, 0.0217 units/mg XO, 0.1 mM EDTA are mixed in a total volume of 1.0 ml Hank's Balanced Salt Solution (HBSS). This generated 64 ±8 nmoles oxygen. In the second group, 0.3125 units/mg SOD and 1,300 units catalase are added to the reagents employed in group 1; this yields 19.4 nmoles oxygen. […] In the third group, chlorine dioxide is substituted for the SOD and catalase in the same system; a chlorine dioxide concentration of about 7.5 ppm inhibits free radical formation by 74% and at a concentration of 15 ppm, by 100%.

[4] = Free radical signal by electron spin resonance (ESR); conditions: One hundred-fold dilutions, within one minute after mixing
Protocol: ClO2 (75 ppm) is generated by mixing 0.25% chlorite and 1.4% lactic acid. One hundred-fold dilutions are tested within one minute after mixing using electron paramagnetic spectroscopy (ESR) and a LKB luminometer.
For the ESR assay, the chlorine dioxide solution is frozen in liquid nitrogen to -167° C. and electron spin resonance analyzed using a Varian E3 instrument.

[5] = tested on: peritoneal cavity; conditions: infused into the peritoneal cavity and other body cavities; per Ser. No. 08/133,465 and U.S. Pat. No. 5,252,343; cited from earlier work

[O][Cl+][O-] [ClO2, chlorine dioxide]
minimal time of exposure to effect sterilization ([1]; dilution 1/2 in normal saline (NS)): 0.25 min | minimal time of exposure to effect sterilization ([1]; dilution 1/2 in peptone-saline (PS)): 1 min | minimal time of exposure to effect sterilization ([1]; dilution 1/2 in peritoneal dialyzate (PD)): 0.083 min | minimal time of exposure to effect sterilization ([1]; dilution 1/3 in normal saline (NS)): 0.5 min | minimal time of exposure to effect sterilization ([1]; dilution 1/3 in peptone-saline (PS)): 3 min | minimal time of exposure to effect sterilization ([1]; dilution 1/3 in peritoneal dialyzate (PD)): 1 min | minimal time of exposure to effect sterilization ([1]; dilution 1/5 in normal saline (NS)): 5 min | minimal time of exposure to effect sterilization ([1]; dilution 1/5 in peptone-saline (PS)): 60 min | minimal time of exposure to effect sterilization ([1]; dilution 1/5 in peritoneal dialyzate (PD)): 5 min | minimal time of exposure to effect sterilization ([1]; dilution 1/7 in normal saline (NS)): 15 min | minimal time of exposure to effect sterilization ([1]; dilution 1/7 in peptone-saline (PS)): 240 min | minimal time of exposure to effect sterilization ([1]; dilution 1/7 in peritoneal dialyzate (PD)): 7 min | minimal time of exposure to effect sterilization ([1]; dilution 1/10 in normal saline (NS)): 60 min | minimal time of exposure to effect sterilization ([1]; dilution 1/10 in peptone-saline (PS)): 1440 min | minimal time of exposure to effect sterilization ([1]; dilution 1/10 in peritoneal dialyzate (PD)): 10 min | effect of diluting with peptone solutions on sterilizing activity ([1]; diluted with peptone solutions): inhibitory effect on the sterilizing activity | effect of peritoneal dialysis solution on antimicrobial activity ([1]; diluted with peritoneal dialysis solution): markedly enhances antimicrobial activity | effect on chemotaxis / quality and morphology of polymorphonuclear leukocytes [2]: control chemotaxis by affecting the quality and morphology of the associated polymorphonuclear leukocytes | effect on chemotaxis / quality and morphology of polymorphonuclear leukocytes ([2]; listed as ClO2 solution): affected both the quality and morphology of polymorphonuclear leukocytes | inhibition of free radical formation ([3]; 15 ppm chlorine dioxide): 100% | inhibition of free radical formation ([3]; about 7.5 ppm chlorine dioxide): 74% | inhibition of free radical formation ([3]; in words): neutralize the superoxide and related radicals | free radical signal [4]: A strong free radical signal is generated | inflammatory response on infusion [5]: without evoking the inflammatory response
